The source of these data is paper PMC3479967 (Evidence-based Complementary and Alternative Medicine : eCAM, 2012).

One test addresses T1, UGT1A6 (Homo sapiens, UniProt P19224).
T1 sequence (P19224 27-532): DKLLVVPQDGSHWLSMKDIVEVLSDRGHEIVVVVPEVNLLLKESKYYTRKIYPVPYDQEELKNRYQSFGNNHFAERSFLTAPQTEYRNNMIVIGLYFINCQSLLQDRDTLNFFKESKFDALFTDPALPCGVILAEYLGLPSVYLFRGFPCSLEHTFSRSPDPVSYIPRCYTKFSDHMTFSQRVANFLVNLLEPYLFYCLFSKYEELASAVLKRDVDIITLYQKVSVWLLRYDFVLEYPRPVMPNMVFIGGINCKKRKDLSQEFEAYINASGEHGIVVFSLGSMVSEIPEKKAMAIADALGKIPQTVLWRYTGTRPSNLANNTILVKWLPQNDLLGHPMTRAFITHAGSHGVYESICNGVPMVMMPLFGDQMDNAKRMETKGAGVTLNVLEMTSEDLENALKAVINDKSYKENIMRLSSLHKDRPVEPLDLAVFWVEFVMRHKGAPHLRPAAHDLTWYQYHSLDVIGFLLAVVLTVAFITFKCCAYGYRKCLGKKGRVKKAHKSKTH
Description: Inhibition of recombinant UGT1A6 activity (4-MU glucuronidation). Here is the method:
(§1) A panel of recombinant human UGT supersomes (UGT1A1, UGT1A3, UGT1A4, UGT1A6, UGT1A7, UGT1A8, UGT1A9, UGT1A10, UGT2B4, UGT2B7, UGT2B15, and UGT2B17) expressed in baculovirus-infected insect cells were purchased from BD Gentest Corp. (Woburn, MA, USA).
(§2) 4-MU, a nonselective substrate of UGTs, was used as probe substrate for all UGTs except UGT1A4. Incubations with each individual enzyme were conducted using conditions previously described. There was a 5 min preincubation step at 37°C before the reaction was started by addition of UDPGA. The incubation mixtures were then centrifuged at 20,500 ×g for 15 min to obtain the supernatant. Aliquots (20 μL) were then analyzed by HPLC. The HPLC system (SHIMADZU, Kyoto, Japan) consisted of an SCL-10A system controller, two LC-10AT pumps, a SIL-10A auto injector, and a SPD-10AVP UV detector. Chromatographic separation was achieved using a Kromasil ODS column (4.6 × 150 mm I.D., 5 μm particle size) at a flow rate of 1 mL/min and UV detection at 316 nm. The mobile phase consisted of 10 mM KH2PO4, pH 2.7 (A) and acetonitrile (B). The following gradient was applied at a flow rate of 1 mL/min: 0–4 min 80% A and 20% B, 4.1–8 min 50% A and 50% B, 8.1–12 min, 30% A and 70% B. All experiments were performed in two independent experiments in duplicate.
A typical incubation mixture contained recombinant human UGTs, 5 mM MgCl2, 5 mM UDPGA, 50 μg/mg protein alamethicin, 50 mM Tris-HCl buffer (pH 7.4), and various probe substrates of UGTs in the absence or presence of different concentrations of inhibitors. […] The final concentration of DMSO in the incubation system was 1% (v/v). […]
Inhibition data from experiments were graphically represented by Dixon plots. K i values were calculated by nonlinear regression using the equations for competitive inhibition (1), noncompetitive inhibition (2), or mixed inhibition (3), [22] […] The type of inhibition was determined from the enzyme inhibition models. Goodness of fit to kinetic and inhibition models was assessed from the F statistic, r ^2 values, parameter standard error estimates, and 95% confidence intervals. […]

The target in a further test is T2, UGT1A7 (Homo sapiens, UniProt Q9HAW7).
T2 sequence (Q9HAW7 26-530): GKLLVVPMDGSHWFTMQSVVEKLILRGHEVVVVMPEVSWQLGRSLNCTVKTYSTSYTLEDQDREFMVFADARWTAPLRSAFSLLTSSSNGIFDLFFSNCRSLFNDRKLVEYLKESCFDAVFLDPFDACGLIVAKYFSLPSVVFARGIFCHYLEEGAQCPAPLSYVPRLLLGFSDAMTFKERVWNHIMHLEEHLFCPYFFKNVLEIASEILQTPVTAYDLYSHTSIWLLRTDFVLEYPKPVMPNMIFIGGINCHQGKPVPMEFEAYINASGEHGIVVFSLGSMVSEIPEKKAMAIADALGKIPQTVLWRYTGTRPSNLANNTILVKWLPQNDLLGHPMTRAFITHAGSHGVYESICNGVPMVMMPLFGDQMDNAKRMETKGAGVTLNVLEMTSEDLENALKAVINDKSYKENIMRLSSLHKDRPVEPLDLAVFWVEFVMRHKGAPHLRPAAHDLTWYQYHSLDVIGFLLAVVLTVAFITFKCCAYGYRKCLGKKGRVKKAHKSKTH
Description: Inhibition of recombinant UGT1A7 activity (4-MU glucuronidation). Here is the method:
as §1, §2
A typical incubation mixture contained recombinant human UGTs, 5 mM MgCl2, 5 mM UDPGA, 50 μg/mg protein alamethicin, 50 mM Tris-HCl buffer (pH 7.4), and various probe substrates of UGTs in the absence or presence of different concentrations of inhibitors. […] The final concentration of DMSO in the incubation system was 1% (v/v). […] Known UGT inhibitors were used as positive controls: diclofenac for UGT1A1, UGT1A6, UGT1A7, and UGT1A9; androsterone for UGT1A3, UGT2B7, and UGT2B15, phenylbutazone for UGT1A8 and UGT1A10, and hecogenin for UGT1A4, respectively. There is no positive control reported available for UGT2B4 and UGT2B17. The negative controls are the incubation without UDPGA. […] The final concentration of DMSO in the incubation system was 1% (v/v). […] There was a 5 min preincubation step at 37°C before the reaction was started by the addition of UDPGA. Incubation times were 120 min for UGT1A1, UGT1A10, UGT2B4, UGT2B15, and UGT2B17, 75 min for UGT1A3, and 30 min for UGT1A4, UGT1A6, UGT1A7, UGT1A8, and UGT1A9. The reactions were quenched by adding 100 μL acetonitrile and internal standard. The incubation mixtures were then centrifuged at 20,500 ×g for 15 min to obtain the supernatant. An aliquot of the supernatant was used for HPLC analysis as described above. All experiments were performed in two independent experiments in duplicate.
Inhibition data from experiments were graphically represented by Dixon plots. K i values were calculated by nonlinear regression using the equations for competitive inhibition (1), noncompetitive inhibition (2), or mixed inhibition (3), [22] (1) v =VmaxS/Km(1+(I/Ki))+S, (2) v =VmaxS/(Km+S)(1+(I/Ki)), (3) v =VmaxS/Km (1+(I/Ki))+S(1+(I/αKi)), where v is the velocity of the reaction; S and I are the substrate and inhibitor concentrations, respectively; K i is the inhibition constant describing the affinity of the inhibitor for the enzyme; K m is the substrate concentration at half of the maximum velocity (V max) of the reaction; α reflects the effect of inhibitor on the affinity of the enzyme for its substrate. The type of inhibition was determined from the enzyme inhibition models. Goodness of fit to kinetic and inhibition models was assessed from the F statistic, r ^2 values, parameter standard error estimates, and 95% confidence intervals. Kinetic constants are reported as the mean value ± standard error of the parameter estimate.

For `COc1ccc(-c2oc3c(CC=C(C)C)c(O[C@@H]4O[C@H](CO)[C@@H](O)[C@H](O)[C@H]4O)cc(O)c3c(=O)c2O[C@@H]2O[C@@H](C)[C@H](O)[C@@H](O)[C@H]2O)cc1` [Icariin], the IC50 at UGT1A6 and on UGT1A7 was above 100 µM each time.
On to `COc1ccc(-c2oc3c(CC=C(C)C)c(O[C@@H]4O[C@H](CO)[C@@H](O)[C@H](O)[C@H]4O)cc(O)c3c(=O)c2O)cc1` [Icariside I], for which the IC50 on UGT1A6 and on UGT1A7 was above 100 µM in each case.
As to `COc1ccc(-c2oc3c(CC=C(C)C)c(O)cc(O)c3c(=O)c2O)cc1` [Icaritin], the 50% inhibitory concentration (IC50) at UGT1A6 is above 100 µM. For the same compound, at UGT1A7, the IC50 stood at 0.3 µM and the Ki was 0.7 ± 0.2 µM. For the same compound, the “Inhibition type against UGT1A7” value on UGT1A7 (recombinant UGT1A7) was “mixed”. Further, on UGT1A7 (recombinant UGT1A7, mixed inhibition model), the “α of mixed inhibition against UGT1A7” value is given as 2.7.
